Reference: PubChem BioAssay AID2202554 (NIEHS Division of Translational Toxicology (DTT))
Inconclusive results are not listed. Calls of active or inactive are those of the source. The rule behind the calls is not given here.

The compounds below were run on S. typhimurium/E. coli reverse mutation, colony counts (assay: Bacterial reverse mutation test (aka Ames test) summary data).
Summary of the method: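 S. typhimurium his⁻ strains (TA97–TA1538) and E. coli WP2 uvrA pKM101 trp⁻, dosed over a range with or without rat, hamster or mouse liver S9. Preincubated 20 min at 37° C (or plate incorporation), plated in agar, incubated usually two days. Revertant colonies counted against negative controls.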
With CCc1cc(C(N)=S)ccn1 the outcome was “inactive; negative”.
With OCC(CO)(CBr)CBr the outcome was “active; positive”.
[CH3][Hg+] was tested, and the outcome was “inactive; negative”.
CC(=O)NNc1ccccc1 was tested, and the outcome was “active; positive”.
CCCCC(CC)COP(OCC(CC)CCCC)OCC(CC)CCCC (configuration not stated) was tested, and the outcome was “inactive; negative”.
With CCCCC1C(=O)N(c2ccccc2)N(c2ccccc2)C1=O the outcome was “inactive; negative”.
For O=C(NCO)NCO, the outcome was “active; positive”.
For COC(=O)CCC(=O)OC, the outcome was “inactive; negative”.
For O=[N+]([O-])CCO, the outcome was “active; positive”.
For COc1ccc(O)cc1, the outcome was “inactive; negative”.
For CN(CCO)CCO, the outcome was “inactive; negative”.
With COc1ccc(N)c(OC)c1 the outcome was “active; positive”.
With Clc1ccc(C(Cl)(Cl)Cl)cc1Cl the outcome was “active; positive”.
For Oc1ccc(O)cc1, the outcome was “inactive; negative”.
With CCOc1ccc(NC(N)=O)cc1 the outcome was “inactive; negative”.
For Cc1cccc([N+](=O)[O-])c1N, the outcome was “active; positive”.
CCOP(=S)(OCC)OP(=S)(OCC)OCC was tested, and the outcome was “active; positive”.
In the case of CC(C)(C)OOC(C)(C)C, the outcome is reported as “inactive; negative”.
For O=C(O)C(Cl)Cl, the outcome was “active; positive”.
In the case of C=C(C)C1CC=C(C)C(O)C1 (configuration not stated), the outcome is reported as “inactive; negative”.
For C=Cc1ccccn1, the outcome was “active; positive”.
With C=C1CC/C=C(\C)CC[C@@H]2[C@@H]1CC2(C)C the outcome was “inactive; negative”.
With COc1ccc(CN(CCN(C)C)c2ncccn2)cc1 the outcome was “inactive; negative”.
With CCOS(C)(=O)=O the outcome was “active; positive”.
For CCC[CH2][Sn]([Cl])([Cl])[Cl], the outcome was “inactive; negative”.
COP(=O)(OC)OC was tested, and the outcome was “active; positive”.
With Cc1cccc(C(=O)O)c1 the outcome was “inactive; negative”.
For C=CC1(C)OC(=O)N(c2cc(Cl)cc(Cl)c2)C1=O (configuration not stated), the outcome was “inactive; negative”.
With Nc1n[nH]c(N)n1 the outcome was “inactive; negative”.
In the case of Clc1ccc(C(c2ccc(Cl)cc2)C(Cl)Cl)cc1, the outcome is reported as “inactive; negative”.
For O=C1OC(=O)c2ccccc21, the outcome was “inactive; negative”.
Oc1cccc(Cl)c1 was tested, and the outcome was “inactive; negative”.
For Nc1ccc([As](=O)(O)O)cc1, the outcome was “inactive; negative”.
For C=CC(=O)NCNC(=O)C=C, the outcome was “active; positive”.
In the case of C=CBr, the outcome is reported as “active; positive”.
In the case of O=c1cc(O)nc[nH]1, the outcome is reported as “inactive; negative”.
For CCCCCCCC/C=C\CCCCCCCC(=O)N(CCO)CCO, the outcome was “inactive; negative”.
In the case of Clc1ccc(Cl)cc1, the outcome is reported as “inactive; negative”.
With CSCCC=O the outcome was “inactive; negative”.
CC(COC(=O)c1ccccc1)(COC(=O)c1ccccc1)COC(=O)c1ccccc1 was tested, and the outcome was “inactive; negative”.
For O=C1c2c(Br)c(Br)c(Br)c(Br)c2C(=O)N1CCN1C(=O)c2c(Br)c(Br)c(Br)c(Br)c2C1=O, the outcome was “inactive; negative”.
C1COCCO1 was tested, and the outcome was “inactive; negative”.
For CC(C)=O, the outcome was “inactive; negative”.
For CC(C)=CCCC(C)CCO (configuration not stated), the outcome was “inactive; negative”.
For ClC/C=C/CCl, the outcome was “active; positive”.
With CCCSC(=O)Cl the outcome was “active; positive”.
In the case of Nc1ccccc1, the outcome is reported as “inactive; negative”.
For Oc1ccc(Cl)c(Cl)c1Cl, the outcome was “inactive; negative”.
Cc1ccc(Nc2ccc(Nc3ccc(C)cc3S(=O)(=O)O)c3c2C(=O)c2ccccc2C3=O)c(S(=O)(=O)O)c1 was tested, and the outcome was “active; weakly positive”.
CCc1cccc(N)c1 was tested, and the outcome was “inactive; negative”.
For Cc1cc(=O)oc2cc(O)cc(O)c12, the outcome was “inactive; negative”.
For CN(C)c1ccc(Cc2ccc(N(C)C)cc2)cc1, the outcome was “active; positive”.
With Oc1c(Cl)c(Cl)c(Cl)c(Cl)c1Cl the outcome was “inactive; negative”.
For CC(C)CC(C)N (configuration not stated), the outcome was “inactive; negative”.
CCCCCCCCOP(=O)(OCCCCCCCC)OCCCCCCCC was tested, and the outcome was “inactive; negative”.
CBr was tested, and the outcome was “active; positive”.
In the case of Nc1ccc(Cl)cc1, the outcome is reported as “active; positive”.
In the case of COc1ccc(C2=N[C@H](c3ccc(Cl)cc3)[C@H](c3ccc(Cl)cc3)N2C(=O)N2CCNC(=O)C2)c(OC(C)C)c1, the outcome is reported as “inactive; negative”.
For NC(=S)NNC(N)=S, the outcome was “inactive; negative”.
For Cc1c(C(=O)O)cccc1[N+](=O)[O-], the outcome was “active; positive”.
With C=C(C#N)C(=O)OC the outcome was “active; positive”.
For C=O, the outcome was “active; positive”.
Cc1cc(N=Nc2ccccc2C)ccc1N was tested, and the outcome was “active; positive”.
OCCOCCOCCO was tested, and the outcome was “active; positive”.
C=CCNCC=C was tested, and the outcome was “inactive; negative”.
In the case of O=C(O)COc1ccc(Cl)cc1Cl, the outcome is reported as “inactive; negative”.
O=C(NO)c1ccccc1 was tested, and the outcome was “active; positive”.
